Measured values: PubChem BioAssay AID256 (DTP/NCI, 2004)
Where “and” joins values, the source holds several entries; their conditions need not be identical. Equal entries are not always repeated. Inconclusive results and toxic doses are left out.

Test system: CD2F1 mice, L1210 leukemia ip, survival T/C
Test: NCI In Vivo Anticancer Drug Screen. Data for tumor model L1210 Leukemia (intraperitoneal) in CD2F1 (CDF1) mice
Conditions: higher = longer survival
In short: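 Implant tumor; dose compound or vehicle; measure endpoint in both groups; report treated divided by control.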

[1] = endpoint: mean survival time, dose: 75.0 mg/kg/injection, schedule: Q01DX009 (ip), vehicle: saline
[2] = endpoint: mean survival time, dose: 100.0 mg/kg/injection, schedule: Q01DX001 (ip), vehicle: saline with Tween-80
[3] = endpoint: mean survival time, dose: 200.0 mg/kg/injection, schedule: Q01DX001 (ip), vehicle: saline with Tween-80
[4] = endpoint: mean survival time, dose: 400.0 mg/kg/injection, schedule: Q01DX001 (ip), vehicle: saline with Tween-80
[5] = endpoint: mean survival time, dose: 100.0 mg/kg/injection, schedule: Q04DX003 (ip), vehicle: saline with Tween-80
[6] = endpoint: mean survival time, dose: 200.0 mg/kg/injection, schedule: Q04DX003 (ip), vehicle: saline with Tween-80
[7] = endpoint: mean survival time, dose: 400.0 mg/kg/injection, schedule: Q04DX003 (ip), vehicle: saline with Tween-80
[8] = endpoint: mean survival time, dose: 25.0 mg/kg/injection, schedule: Q04DX002 (ip), vehicle: saline with Tween-80
[9] = endpoint: mean survival time, dose: 50.0 mg/kg/injection, schedule: Q04DX002 (ip), vehicle: saline with Tween-80
[10] = endpoint: mean survival time, dose: 100.0 mg/kg/injection, schedule: Q04DX002 (ip), vehicle: saline with Tween-80
[11] = endpoint: mean survival time, dose: 200.0 mg/kg/injection, schedule: Q04DX002 (ip), vehicle: saline with Tween-80
[12] = endpoint: mean survival time, dose: 50.0 mg/kg/injection, schedule: Q01DX009 (ip), vehicle: Klucel (hydroxypropylcellulose) (HPC)
[13] = endpoint: mean survival time, dose: 100.0 mg/kg/injection, schedule: Q01DX009 (ip), vehicle: Klucel (hydroxypropylcellulose) (HPC)
[14] = endpoint: mean survival time, dose: 200.0 mg/kg/injection, schedule: Q01DX009 (ip), vehicle: Klucel (hydroxypropylcellulose) (HPC)

Compound: OC1C=CC(O)C1 (stereo not given)
- T/C (endpoint: mean survival time, dose: 75.0 mg/kg/injection, schedule: Q01DX001 (ip), vehicle: saline): 97 % of control
- T/C (endpoint: mean survival time, dose: 150.0 mg/kg/injection, schedule: Q01DX001 (ip), vehicle: saline): 101 % of control

Compound: C[N+]1(CCO)C2CCC1CC(O)C2 (stereo not given)
- T/C (endpoint: mean survival time, dose: 100.0 mg/kg/injection, schedule: Q04DX002 (ip), vehicle: saline): 97 % of control
- T/C (endpoint: mean survival time, dose: 200.0 mg/kg/injection, schedule: Q04DX002 (ip), vehicle: saline): 102 % of control

Compound: Cc1ccnc(NS(=O)(=O)c2ccc(N=Nc3nc4[nH]c(N)nc(=S)c4[nH]3)cc2)n1
- T/C (endpoint: mean survival time, dose: 0.2 mg/kg/injection, schedule: Q01DX009 (ip), vehicle: Klucel (hydroxypropylcellulose) (HPC)): 96 % of control
- T/C (endpoint: mean survival time, dose: 0.4 mg/kg/injection, schedule: Q01DX009 (ip), vehicle: Klucel (hydroxypropylcellulose) (HPC)): 106 % of control
- T/C (endpoint: mean survival time, dose: 0.8 mg/kg/injection, schedule: Q01DX009 (ip), vehicle: Klucel (hydroxypropylcellulose) (HPC)): 106 % of control
- T/C (endpoint: mean survival time, dose: 1.56 mg/kg/injection, schedule: Q01DX009 (ip), vehicle: Klucel (hydroxypropylcellulose) (HPC)): 203 % of control
- T/C (endpoint: mean survival time, dose: 1.6 mg/kg/injection, schedule: Q01DX009 (ip), vehicle: Klucel (hydroxypropylcellulose) (HPC)): 117 % of control
- T/C (endpoint: mean survival time, dose: 3.13 mg/kg/injection, schedule: Q01DX009 (ip), vehicle: Klucel (hydroxypropylcellulose) (HPC)): 150 % of control
- T/C (endpoint: mean survival time, dose: 6.25 mg/kg/injection, schedule: Q01DX009 (ip), vehicle: Klucel (hydroxypropylcellulose) (HPC)): 117 % of control

Compound: CC[C@@]1(OC(=O)C(N)CCC(=O)O)C(=O)OCc2c1cc1n(c2=O)Cc2cc3ccccc3nc2-1 (stereo not given in full)
- T/C (endpoint: median survival time, dose: 6.85 mg/kg/injection, schedule: Q04DX002 (ip), vehicle: water): 107 % of control and 108 % of control
- T/C (endpoint: median survival time, dose: 10.27 mg/kg/injection, schedule: Q04HX004 (iv), vehicle: water): 120 % of control and 111 % of control
- T/C (endpoint: median survival time, dose: 13.69 mg/kg/injection, schedule: Q04DX002 (ip), vehicle: water): 113 % of control
- T/C (endpoint: median survival time, dose: 27.39 mg/kg/injection, schedule: Q04DX002 (ip), vehicle: water): 122 % of control
- T/C (endpoint: median survival time, dose: 41.08 mg/kg/injection, schedule: Q04HX004 (iv), vehicle: water): 184 % of control and 197 % of control
- T/C (endpoint: median survival time, dose: 54.78 mg/kg/injection, schedule: Q04DX002 (ip), vehicle: water): 154 % of control and 170 % of control
- T/C (endpoint: median survival time, dose: 54.78 mg/kg/injection, schedule: Q04HX004 (iv), vehicle: water): 204 % of control and 211 % of control
- T/C (endpoint: median survival time, dose: 109.6 mg/kg/injection, schedule: Q04DX002 (ip), vehicle: water): 208 % of control

Compound: OC(CC(O)(C(F)(F)F)C(F)(F)F)CC(O)(C(F)(F)F)C(F)(F)F
- T/C (endpoint: mean survival time, dose: 6.25 mg/kg/injection, schedule: Q01DX009 (ip), vehicle: saline with Tween-80): 95 % of control
- T/C (endpoint: mean survival time, dose: 12.5 mg/kg/injection, schedule: Q01DX009 (ip), vehicle: saline with Tween-80): 92 % of control
- T/C (endpoint: mean survival time, dose: 25.0 mg/kg/injection, schedule: Q01DX009 (ip), vehicle: saline with Tween-80): 90 % of control

Compound: O=C(O)c1ccc([N+](=O)[O-])cc1P(=O)(O)O
- T/C (endpoint: mean survival time, dose: 18.75 mg/kg/injection, schedule: Q01DX009 (ip), vehicle: saline): 98 % of control
- T/C (endpoint: mean survival time, dose: 37.5 mg/kg/injection, schedule: Q01DX009 (ip), vehicle: saline): 98 % of control
- T/C [1]: 95 % of control

Compound: C[N+]1(C)N=C([O-])N(c2cccc3ccccc23)C1=O
- T/C [2]: 98 % of control
- T/C (endpoint: mean survival time, dose: 100.0 mg/kg/injection, schedule: Q01DX009 (ip), vehicle: saline with Tween-80): 103 % of control
- T/C [3]: 101 % of control
- T/C (endpoint: mean survival time, dose: 200.0 mg/kg/injection, schedule: Q01DX009 (ip), vehicle: saline with Tween-80): 108 % of control
- T/C [4]: 98 % of control

Compound: CCOC(=O)C(C)(C)CO
- T/C (endpoint: mean survival time, dose: 100.0 mg/kg/injection, schedule: Q01DX009 (ip), vehicle: saline sonified): 93 % of control
- T/C (endpoint: mean survival time, dose: 200.0 mg/kg/injection, schedule: Q01DX009 (ip), vehicle: saline sonified): 101 % of control
- T/C (endpoint: mean survival time, dose: 400.0 mg/kg/injection, schedule: Q01DX009 (ip), vehicle: saline sonified): 103 % of control
- T/C (endpoint: mean survival time, dose: 800.0 mg/kg/injection, schedule: Q01DX009 (ip), vehicle: saline sonified): 90 % of control

Compound: O=S1(=O)C=Cc2ccccc2O1
- T/C [1]: 102 % of control
- T/C (endpoint: mean survival time, dose: 75.0 mg/kg/injection, schedule: Q04DX003 (ip), vehicle: saline): 97 % of control
- T/C (endpoint: mean survival time, dose: 150.0 mg/kg/injection, schedule: Q01DX009 (ip), vehicle: saline): 102 % of control
- T/C (endpoint: mean survival time, dose: 150.0 mg/kg/injection, schedule: Q04DX003 (ip), vehicle: saline): 95 % of control
- T/C (endpoint: mean survival time, dose: 300.0 mg/kg/injection, schedule: Q01DX009 (ip), vehicle: saline): 100 % of control
- T/C (endpoint: mean survival time, dose: 300.0 mg/kg/injection, schedule: Q04DX003 (ip), vehicle: saline): 97 % of control

Compound: CCCCS(=O)(=O)C1CCCC1=O (stereo not given)
- T/C [5]: 102 % of control
- T/C [6]: 102 % of control
- T/C [7]: 102 % of control

Compound: O=C(O)CCCCCCCC(Br)C(Br)CCCCCCCC(=O)O (stereo not given)
- T/C [8]: 95 % of control
- T/C [9]: 91 % of control
- T/C [10]: 91 % of control
- T/C [11]: 95 % of control

Compound: ClC(Cl)(Cl)C(c1ccccc1)c1ccccc1
- T/C [12]: 96 % of control
- T/C [13]: 93 % of control
- T/C [5]: 101 % of control
- T/C [14]: 93 % of control
- T/C [6]: 95 % of control
- T/C [7]: 90 % of control

Compound: COc1ccc(/C=C2\Oc3cc(O)ccc3C2=O)cc1O
- T/C [2]: 96 % of control
- T/C [3]: 94 % of control
- T/C [4]: 91 % of control

Compound: Cc1ccc(S(=O)(=O)OCC2OCOC(C(O)CO)C2O)cc1 (stereo not given)
- T/C [12]: 101 % of control
- T/C [13]: 97 % of control
- T/C [14]: 97 % of control

Compound: C1CCC(N2CCOCC2)CC1
- T/C (endpoint: mean survival time, dose: 25.0 mg/kg/injection, schedule: Q04DX002 (ip), vehicle: saline): 105 % of control
- T/C (endpoint: mean survival time, dose: 50.0 mg/kg/injection, schedule: Q04DX002 (ip), vehicle: saline): 102 % of control

Compound: O=C(Oc1ccccc1)c1cc(O)c(O)c(O)c1
- T/C (endpoint: median survival time, dose: 25.0 mg/kg/injection, schedule: Q01DX009 (ip), vehicle: saline with Tween-80): 101 % of control
- T/C (endpoint: median survival time, dose: 50.0 mg/kg/injection, schedule: Q01DX009 (ip), vehicle: saline with Tween-80): 98 % of control
- T/C (endpoint: median survival time, dose: 100.0 mg/kg/injection, schedule: Q01DX009 (ip), vehicle: saline with Tween-80): 105 % of control
- T/C (endpoint: median survival time, dose: 200.0 mg/kg/injection, schedule: Q01DX009 (ip), vehicle: saline with Tween-80): 112 % of control

Compound: O=C(O)c1ccc(C(=O)O)s1.[NH-]C1CCCCC1[NH-].[Pt+2]
- T/C (endpoint: mean survival time, dose: 2.5 mg/kg/injection, schedule: Q04DX003 (ip), vehicle: dextrose): 113 % of control
- T/C (endpoint: mean survival time, dose: 5.0 mg/kg/injection, schedule: Q04DX003 (ip), vehicle: dextrose): 118 % of control
- T/C (endpoint: mean survival time, dose: 20.0 mg/kg/injection, schedule: Q04DX003 (ip), vehicle: dextrose): 113 % of control

Compound: CN1CC2(Cc3ccccc3)c3ccccc3NC2(NC(=O)CCl)C1=O (stereo not given)
- T/C [8]: 87 % of control
- T/C [9]: 95 % of control
- T/C [10]: 91 % of control
- T/C [3]: 92 % of control
- T/C [11]: 89 % of control
- T/C [4]: 96 % of control

Compound: COC(=O)c1[nH]cnc1/N=N/N(C)C.[Cl][Cu][Cl]
- T/C (endpoint: mean survival time, dose: 2.5 mg/kg/injection, schedule: Q01DX001 (ip), vehicle: saline): 98 % of control
- T/C (endpoint: mean survival time, dose: 5.0 mg/kg/injection, schedule: Q01DX001 (ip), vehicle: saline): 92 % of control
- T/C (endpoint: mean survival time, dose: 10.0 mg/kg/injection, schedule: Q01DX001 (ip), vehicle: saline): 88 % of control and 96 % of control
- T/C (endpoint: mean survival time, dose: 20.0 mg/kg/injection, schedule: Q01DX001 (ip), vehicle: saline): 111 % of control

Compound: O=C(O)c1ccccc1C(=O)NCc1ccccn1
- T/C [12]: 90 % of control
- T/C [13]: 97 % of control
- T/C [14]: 101 % of control

Compound: OC1CCCC2CCCCC12 (stereo not given)
- T/C [5]: 100 % of control
- T/C [6]: 109 % of control
- T/C [7]: 94 % of control

Compound: Clc1ccc(-c2ccncc2)cc1
- T/C [10]: 101 % of control
- T/C [11]: 108 % of control
- T/C (endpoint: mean survival time, dose: 400.0 mg/kg/injection, schedule: Q04DX002 (ip), vehicle: saline with Tween-80): 103 % of control

Compound: NC(=O)NC1OC(CO)C(O)C(O)C1O (stereo not given)
- T/C (endpoint: mean survival time, dose: 100.0 mg/kg/injection, schedule: Q04DX003 (ip), vehicle: saline): 100 % of control
- T/C (endpoint: mean survival time, dose: 200.0 mg/kg/injection, schedule: Q04DX003 (ip), vehicle: saline): 100 % of control
- T/C (endpoint: mean survival time, dose: 400.0 mg/kg/injection, schedule: Q04DX003 (ip), vehicle: saline): 105 % of control
